Assay results: US11753446B2, “Beta-hairpin peptidomimetics” (POLYPHOR AG, priority 2014, dated 2023)
Where a SMILES comes first, the peptide text is derived from it. Bridges are numbered along the chain shown (N, C = ends). [ ]: non-standard residue; d: D form. Gly(cPent) = N[C@H](C(=O)O)C1CCCC1; Tle = CC(C)(C)[C@H](N)C(=O)O; dDab = NCC[C@@H](N)C(=O)O; Orn = NCCC[C@H](N)C(=O)O; Dab = NCC[C@H](N)C(=O)O

Experiments:
[1] = system: human red blood cells (hRBC); assay: Hemolysis: hemolytic activity at 100 μg/mL, 1 h at 37° C.; conditions: red cells of human, 1 h, 100
Summary of the method: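 Peptides at 100 μg/mL incubated with washed 20% (v/v) human erythrocytes (~0.9×10^9 cells/mL) for 1 h at 37 °C with shaking. Released hemoglobin read at OD 540 nm in supernatant; 0% and 100% lysis from PBS/0.001% acetic acid and 2.5% Triton X-100.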

[2] = system: Escherichia coli ATCC 25922; format: cell-based; conditions: ATCC 25922
Summary of the method: (§1)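 Peptide MICs were determined by NCCLS broth microdilution in cation-adjusted Mueller-Hinton II broth. Inoculum was about 10^6 CFU/mL, matched to 0.5 McFarland, with peptides in two-fold serial dilutions. The broth contained Polysorbate 80 at 0.002% final concentration.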

[3] = system: Klebsiella pneumoniae ATCC 13883; format: cell-based; conditions: ATCC 13883
Summary of the method: as §1

[4] = system: Acinetobacter baumannii DSM 30008; format: cell-based; conditions: DSM 30008
Summary of the method: as §1

With `CC[C@H](C)[C@@H]1NC(=O)[C@H](Cc2ccc(O)cc2)NC(=O)[C@@H](C)NC(=O)[C@H](CO)NC(=O)[C@H](C)NC(=O)[C@H](C(C)(C)C)NC(=O)[C@H](CCN)NC(=O)[C@H](Cc2c[nH]c3ccccc23)NC(=O)[C@H](CCN)NC(=O)[C@@H](CCN)NC(=O)[C@H](CCCN)NC(=O)[C@H](CCN)NC(=O)[C@H](Cc2ccc(O)cc2)NC(=O)[C@H]([C@@H](C)O)NC1=O` [Example 49, cyclo(-Ile-Thr-Tyr-Dab-Orn-^DDab-Dab-Trp-Dab-tBuGly-Ala-Ser-^DAla-Tyr-)] (HELM PEPTIDE1{A.S.[dA].Y.I.T.Y.[Dab].[Orn].[NCC[C@@H](N[*:1])C(=O)[*:2]].[Dab].W.[Dab].[CC(C)(C)[C@H](N[*:1])C(=O)[*:2]]}$PEPTIDE1,PEPTIDE1,1:R1-14:R2$$$V2.0) the “Hemolysis at 100 μg/mL” value [1] was 2%, the “Escherichia coli ATCC 25922 MIC” value [2] was 2 µg/mL and the “Klebsiella pneumoniae ATCC 13883 MIC” value [3] was 2 µg/mL. The “Acinetobacter baumannii DSM 30008 MIC” value [4] was 4 µg/mL.

In the case of `CC(C)[C@@H]1NC(=O)[C@@H]2CSSC[C@H](NC(=O)[C@H](C3CCCC3)NC(=O)[C@H](CCCNC(=N)N)NC(=O)[C@@H](CCN)NC1=O)C(=O)N[C@@H](Cc1ccc(O)cc1)C(=O)N[C@@H](CC(N)=O)C(=O)N[C@@H](CCCN)C(=O)N[C@H](CCN)C(=O)N[C@@H](CCN)C(=O)N[C@@H](Cc1c[nH]c3ccccc13)C(=O)N[C@@H](CO)C(=O)N[C@@H](Cc1ccc(O)cc1)C(=O)N2` [Example 59, cyclo(-Cpg-Cys-Tyr-Asn-Orn-^DDab-Dab-Trp-Ser-Tyr-Cys-Val-^DDab-Arg-)] (cyclo(CV[dDab]R[Gly(cPent)]CYN[Orn][dDab][Dab]WSY); disulfide 1-6), the “Hemolysis at 100 μg/mL” value [1] was 1%, the “Escherichia coli ATCC 25922 MIC” value [2] was 1 µg/mL and the “Klebsiella pneumoniae ATCC 13883 MIC” value [3] was 0.75 µg/mL. For the same compound, the “Acinetobacter baumannii DSM 30008 MIC” value [4] was 0.75 µg/mL.

`CC(C)C[C@@H]1NC(=O)[C@H](CCCNC(=N)N)NC(=O)[C@@H](CCN)NC(=O)[C@H](C(C)C)NC(=O)[C@@H]2CSSC[C@H](NC1=O)C(=O)N[C@@H](C(C)C)C(=O)N[C@@H]([C@@H](C)O)C(=O)N[C@@H](CCCN)C(=O)N[C@H](CCN)C(=O)N[C@@H](CCN)C(=O)N[C@@H](Cc1c[nH]c3ccccc13)C(=O)N[C@@H]([C@@H](C)O)C(=O)N[C@@H](Cc1ccc(O)cc1)C(=O)N2` [Example 25, cyclo(-Leu-Cys-Val-Thr-Orn-^DDab-Dab-Trp-Thr-Tyr-Cys-Val-^DDab-Arg-)] (HELM PEPTIDE1{C.V.T.[Orn].[NCC[C@@H](N[*:1])C(=O)[*:2]].[Dab].W.T.Y.C.V.[NCC[C@@H](N[*:1])C(=O)[*:2]].R.L}$PEPTIDE1,PEPTIDE1,1:R3-10:R3|PEPTIDE1,PEPTIDE1,1:R1-14:R2$$$V2.0) was tested, and the “Hemolysis at 100 μg/mL” value [1] was 3%, the “Escherichia coli ATCC 25922 MIC” value [2] was 1 µg/mL and the “Klebsiella pneumoniae ATCC 13883 MIC” value [3] was 1 µg/mL. The “Acinetobacter baumannii DSM 30008 MIC” value [4] was 0.25 µg/mL.

`CC(C)C[C@@H]1NC(=O)[C@H](CCCNC(=N)N)NC(=O)[C@H]2CCCN2C(=O)[C@H](C(C)C)NC(=O)[C@@H]2CSSC[C@H](NC1=O)C(=O)N[C@@H](Cc1ccc(O)cc1)C(=O)N[C@@H](C)C(=O)N[C@@H](CCCN)C(=O)N[C@H](CCN)C(=O)N[C@@H](CCN)C(=O)N[C@@H](Cc1c[nH]c3ccccc13)C(=O)N[C@@H](C)C(=O)N[C@@H](C(C)C)C(=O)N2` [Example 3, cyclo(-Leu-Cys-Tyr-Ala-Orn-^DDab-Dab-Trp-Ala-Val-Cys-Val-^DPro-Arg-)] (HELM PEPTIDE1{A.[Orn].[NCC[C@@H](N[*:1])C(=O)[*:2]].[Dab].W.A.V.C.V.[dP].R.L.C.Y}$PEPTIDE1,PEPTIDE1,8:R3-13:R3|PEPTIDE1,PEPTIDE1,1:R1-14:R2$$$V2.0) was tested, and the “Hemolysis at 100 μg/mL” value [1] was 4%, the “Escherichia coli ATCC 25922 MIC” value [2] was 2 µg/mL and the “Klebsiella pneumoniae ATCC 13883 MIC” value [3] was 1 µg/mL. The “Acinetobacter baumannii DSM 30008 MIC” value [4] was 1 µg/mL.

In the case of `CC(C)C[C@@H]1NC(=O)[C@H](CCN)NC(=O)[C@H]2CCCN2C(=O)[C@H](C(C)C)NC(=O)[C@H]([C@@H](C)O)NC(=O)[C@H](C(C)C)NC(=O)[C@@H]2CSSC[C@H](NC(=O)[C@H](Cc3ccc(O)cc3)NC(=O)[C@H]([C@@H](C)O)NC1=O)C(=O)N[C@@H](CCN)C(=O)N[C@H](CCN)C(=O)N[C@@H](CCN)C(=O)N[C@@H](Cc1c[nH]c3ccccc13)C(=O)N2` [Example 37, cyclo(-Leu-Thr-Tyr-Cys-Dab-^DDab-Dab-Trp-Cys-Val-Thr-Val-^DPro-Dab-)] (HELM PEPTIDE1{C.[Dab].[NCC[C@@H](N[*:1])C(=O)[*:2]].[Dab].W.C.V.T.V.[dP].[Dab].L.T.Y}$PEPTIDE1,PEPTIDE1,1:R3-6:R3|PEPTIDE1,PEPTIDE1,1:R1-14:R2$$$V2.0), the “Hemolysis at 100 μg/mL” value [1] was 2%, the “Escherichia coli ATCC 25922 MIC” value [2] was 4 µg/mL and the “Klebsiella pneumoniae ATCC 13883 MIC” value [3] was 2 µg/mL. The “Acinetobacter baumannii DSM 30008 MIC” value [4] was 2 µg/mL.

For `CC(C)C[C@@H]1NC(=O)[C@H](CCN)NC(=O)[C@@H](CCN)NC(=O)[C@H]([C@@H](C)O)NC(=O)[C@@H]2CCNC(=O)C[C@H](NC1=O)C(=O)N[C@@H](Cc1ccc(O)cc1)C(=O)N[C@@H](CC(N)=O)C(=O)N[C@@H](CCCN)C(=O)N[C@H](CCN)C(=O)N[C@@H](CCN)C(=O)N[C@@H](Cc1c[nH]c3ccccc13)C(=O)N[C@@H](CO)C(=O)N[C@@H](C(C)(C)C)C(=O)N2` [Example 76, cyclo(-Leu-Asp-Tyr-Asn-Orn-^DDab-Dab-Trp-Ser-tBuGly-Dab-Thr-^DDab-Dab-)] (cyclo(LDYN[Orn][dDab][Dab]WS[Tle][Dab]T[dDab][Dab]); lactam 2-11), the “Hemolysis at 100 μg/mL” value [1] was 2%, the “Escherichia coli ATCC 25922 MIC” value [2] was 1 µg/mL and the “Klebsiella pneumoniae ATCC 13883 MIC” value [3] was 1 µg/mL. The “Acinetobacter baumannii DSM 30008 MIC” value [4] was 1.5 µg/mL.

`CC[C@H](C)[C@@H]1NC(=O)[C@H](CCCNC(=N)N)NC(=O)[C@@H](CCN)NC(=O)[C@H](C(C)C)NC(=O)[C@@H]2CSSC[C@H](NC1=O)C(=O)N[C@@H](Cc1ccc(O)cc1)C(=O)N[C@@H](CC(N)=O)C(=O)N[C@@H](CCCN)C(=O)N[C@H](CCN)C(=O)N[C@@H](CCN)C(=O)N[C@@H](Cc1c[nH]c3ccccc13)C(=O)N[C@@H](CO)C(=O)N[C@@H](Cc1ccc(O)cc1)C(=O)N2` [Example 70, cyclo(-Ile-Cys-Tyr-Asn-Orn-^DDab-Dab-Trp-Ser-Tyr-Cys-Val-^DDab-Arg-)] (HELM PEPTIDE1{C.V.[NCC[C@@H](N[*:1])C(=O)[*:2]].R.I.C.Y.N.[Orn].[NCC[C@@H](N[*:1])C(=O)[*:2]].[Dab].W.S.Y}$PEPTIDE1,PEPTIDE1,1:R3-6:R3|PEPTIDE1,PEPTIDE1,1:R1-14:R2$$$V2.0) was tested, and the “Hemolysis at 100 μg/mL” value [1] was 1%, the “Escherichia coli ATCC 25922 MIC” value [2] was 1 µg/mL and the “Klebsiella pneumoniae ATCC 13883 MIC” value [3] was 1 µg/mL. For the same compound, the “Acinetobacter baumannii DSM 30008 MIC” value [4] was 2.25 µg/mL.

In the case of `CC(C)C[C@@H]1NC(=O)[C@H](CCCNC(=N)N)NC(=O)[C@@H](CCN)NC(=O)[C@H](Cc2ccc(O)cc2)NC(=O)[C@@H]2CSSC[C@H](NC1=O)C(=O)N[C@@H](Cc1ccc(O)cc1)C(=O)N[C@@H](C)C(=O)N[C@@H](CCCN)C(=O)N[C@H](CCN)C(=O)N[C@@H](CCN)C(=O)N[C@@H](Cc1c[nH]c3ccccc13)C(=O)N[C@@H](C)C(=O)N[C@@H](Cc1ccc(O)cc1)C(=O)N2` [Example 17, cyclo(-Leu-Cys-Tyr-Ala-Orn-^DDab-Dab-Trp-Ala-Tyr-Cys-Tyr-^DDab-Arg-)] (HELM PEPTIDE1{A.[Orn].[NCC[C@@H](N[*:1])C(=O)[*:2]].[Dab].W.A.Y.C.Y.[NCC[C@@H](N[*:1])C(=O)[*:2]].R.L.C.Y}$PEPTIDE1,PEPTIDE1,8:R3-13:R3|PEPTIDE1,PEPTIDE1,1:R1-14:R2$$$V2.0), the “Hemolysis at 100 μg/mL” value [1] was 4%, the “Escherichia coli ATCC 25922 MIC” value [2] was 0.5 µg/mL and the “Klebsiella pneumoniae ATCC 13883 MIC” value [3] was 1 µg/mL. The “Acinetobacter baumannii DSM 30008 MIC” value [4] was 0.5 µg/mL.
